Our source for the IC50 values is US20130345215A1, “PYRAZOLOPYRIMIDONE AND PYRAZOLOPYRIDONE INHIBITORS OF TANKYRASE” (Genentech, Inc., priority 2012, published 2013).

The IC50 is the concentration that inhibits the measured activity by half.

Where two headings read alike, the source gives them in different places.

Assay [1] has as its target T1, Tankyrase 1 (TNKS1) (Homo sapiens, UniProt O95271).
T1 construct: His6-TNKS1, MW=28.2 KDa (construct: 1088-1327, 1266M)
The experiment in a line: μHTS-TNKS-IWR2 TR-FRET Binding Assay (Example 118), His6-TNKS1. As to the method:
(§1) μHTS-TNKS-IWR2 TR-FRET Binding Assay (10 μL/well in BD1536-well plate, a single point)
(§2) Reagents and Stock Solutions
(§3) Biotin-4-((1S,2R,6S,7R)-3,5-Dioxo-4-aza-tricyclo[5.2.1.0*2,6]dec-8-en-4-yl)-N-(4-methyl-quinolin-8-yl)-benzamide (Biotin-IWR2): 10 mM Biotin-IWR2 stock in DMSO, stored at −20° C.
(XAV939) in DMSO, stored at −20° C.
(§4) Assay buffer 1a (AB1a) for TNKS dilution: 50 mM Tris, pH 7.4, 100 mM sodium chloride solution, 1 mM magnesium chloride solution, 1 mM DL-dithiothreitol solution, 0.2 mg/mL bovine serum albumin solution, 0.025% NP-40.
(§5) Assay buffer 1b (AB1b) for Biotin-IWR2 dilution: 50 mM Tris, pH 7.4, 100 mM sodium chloride solution, 1 mM magnesium chloride solution, 1 mM DL-dithiothreitol solution, 0.2 mg/mL bovine serum albumin solution, 0.05% NP-40
(§6) Assay buffer 1c (AB1c) for compound dilution: 50 mM Tris, pH 7.4, 100 mM sodium chloride solution, 1 mM magnesium chloride solution, 1 mM DL-dithiothreitol solution, 0.2 mg/mL bovine serum albumin solution
(§7) Assay buffer 2 (AB2) for Eu/APC: 50 mM Tris, pH 7.4, 100 mM sodium chloride solution, 1 mM magnesium chloride solution, 0.2 mg/mL bovine serum albumin solution
(§8) Reagent Stock Solution Preparation
(§9) Prepare BLANK well stock solution: 5% DMSO/AB1b buffer
(§10) Prepare TNKS 1 stock solution (5× stock): 300 nM TNKS in AB1a buffer. (Alternatively, use TNKS2 or PARP1 stock solutions.)
Transfer 3 μL/well of above solution (solution 1,2,3) to an empty assay plate (BD1536-well plate) as follows: • TOTAL and cpd wells: Solution 1 (Biotin-IWR2): • BLANK wells: Solution 2 (No Biotin-IWR2): • POSITIVE CONTROL wells: Solution 3 (Biotin-IWR2+XAV939)
(§11) Transfer 3 μL/well of the above diluted compound solutions or compound dilution buffer to the above assay plate. Add 2 μL/well of 300 nM TNKS stock solution (4) to every well in the above assay plate. Centrifuge the assay plate at 2100 rpm for 2 min. Incubate the assay plate at 26° C. for 30 minutes. Add 2 μL/well 3.5 nMEu/50 nM APC solution (5) to every well in the above assay plate. Centrifuge the assay plate at 2100 rpm for 2 min. Incubate the assay plate at 26° C. for 60 min.
For orientation: TR-FRET usually uses a lanthanide donor and a delayed reading to cut background.

The target in assay [2] is T2, tankyrase 2 (TNKS2) (Homo sapiens, UniProt Q9H2K2).
T2 construct: His6-tankyrase 2 (construct: 934-1166) (His6-TNKS2)
T2 sequence (Q9H2K2 934-1166): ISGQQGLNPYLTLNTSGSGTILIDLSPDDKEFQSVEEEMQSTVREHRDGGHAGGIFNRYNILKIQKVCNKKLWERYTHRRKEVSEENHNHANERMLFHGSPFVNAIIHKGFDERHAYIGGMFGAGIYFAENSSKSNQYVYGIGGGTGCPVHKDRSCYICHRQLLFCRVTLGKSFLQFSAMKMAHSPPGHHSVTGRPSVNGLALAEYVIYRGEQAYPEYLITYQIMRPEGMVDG
The experiment in a line: μHTS-TNKS-IWR2 TR-FRET Binding Assay (Example 118), His6-TNKS2 substituted. Particulars: procedure in Example 118 with His6-TNKS2. As to the method:
as §1, §2
Tankyrase 1 (TNKS1): 184.3 μM=5.2 mg/mL His6-TNKS1, MW=28.2 KDa (construct: 1088-1327, 1266M) in 20 mM Tris pH 8, 150 mM NaCl, 10% glycerol, and 0.5 mM TCEP. Alternatively, His6-tankyrase 2 (construct: 934-1166) (His6-TNKS2) or His6-PARP1 (full length) can be substituted for His6-TNKS 1.
as §3
Positive control: 10 mM 2-(4-Trifluoromethyl-phenyl)-3,5,7,8-tetrahydro-thiopyrano[4,3-d]pyrimidin-4-one (XAV939) in DMSO, stored at −20° C.
APC-anti-His Ab: 8.50 μM SL-APC, 8.26 μM anti-6His antibody-SureLight APC (Columia Bioscience, Catalog Number D3-1711, Lot Number N01010-AAH04)
Assay plate: BD 1536-well, clear/black plate (Catalog Number 353255)
as §4, §5, §6, §7, §8
Prepare Biotinylated IWR2 stock solution (3.33× stock) for TOTL and compound wells: 200 nM Biotin-IWR2 in 5% DMSO/AB1b buffer
as §9
Prepare POSITIVE CONTROL well stock solution (3.33× stock): 200 nM XAV939 in 200 nM Biotin-IWR2/5% DMSO/AB1b buffer
as §10
Prepare Eu/APC stock solution (5× stock): 3.5 nM Eu-SA/50 nM APC-His6Ab in AB2 buffer.
Add 25 μL/well 1.5% DMSO/AB1c buffer in each compound well to the compound concentration at 74 μM in 8.8% DMSO/AB1c buffer or in the 2 μL DMSO CONTROL wells (BLANK, TOTAL and POSITIVE wells) in the compound plate. Transfer 3 μL/well of above solution (solution 1,2,3) to an empty assay plate (BD1536-well plate) as follows: • TOTAL and cpd wells: Solution 1 (Biotin-IWR2): • BLANK wells: Solution 2 (No Biotin-IWR2): • POSITIVE CONTROL wells: Solution 3 (Biotin-IWR2+XAV939)
as §11, with “60 min. Read the assay plate immediately at excitation wavelength of 330 nm and emission wavelength of […] in time resolved fluorescence mode.” for “60 min.”
XAV939 (+ve control): 60 nM at ˜70% Inhibition
General Library compounds: 22.23 μM in 4% DMSO

T1 sequence (O95271 1088-1327): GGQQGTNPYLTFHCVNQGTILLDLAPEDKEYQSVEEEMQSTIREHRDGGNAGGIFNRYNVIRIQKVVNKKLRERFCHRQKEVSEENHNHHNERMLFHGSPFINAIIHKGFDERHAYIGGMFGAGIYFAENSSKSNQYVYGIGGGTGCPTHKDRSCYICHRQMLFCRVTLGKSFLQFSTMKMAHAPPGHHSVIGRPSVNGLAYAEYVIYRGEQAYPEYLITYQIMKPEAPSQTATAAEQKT

As to `COc1cccnc1N1CCN(c2nc3c(cnn3C)c(=O)[nH]2)CC1` [Compound I-43, 6-[4-(3-methoxy-2-pyridyl)piperazin-1-yl]-1-methyl-5H-pyrazolo[3 4-d]pyrimidin-4-one], the IC50 in assay [1] was 0.047 µM; in assay [2], 0.0553 µM.
For `Cn1ncc2c(=O)[nH]c(N3CCN(c4ccccc4C(F)(F)F)CC3)nc21` [Compound I-19, 1-methyl-6-[4-[2-(trifluoromethyl)phenyl]piperazin-1-yl]-5H-pyrazolo[3 4-d]pyrimidin-4-one], the IC50 in assay [1] amounted to 0.027 µM; in assay [2], 0.0326 µM.
Take `Cn1ncc2c(=O)[nH]c(N3CCC(C#N)(c4ccccc4)CC3)nc21` [Compound I-24, 1-(1-methyl-4-oxo-5H-pyrazolo[3 4-d]pyrimidin-6-yl)-4-phenyl-piperidine-4-carbonitrile]: the IC50 in assay [1] amounted to 0.027 µM; in assay [2], 0.0333 µM.
The like results for `Cn1ncc2c(=O)[nH]c(-c3ccc(C(F)(F)F)cc3)cc21` [Compound I-13, 1-methyl-6-[4-(trifluoromethyl)phenyl]-5H-pyrazolo[4 3-c]pyridin-4-one] were, in that order, 0.032 µM and 0.0325 µM.
Turning to `Cn1ncc2c(=O)[nH]c(N3CCN(c4ccccc4C#N)CC3)nc21` [Compound I-15, 2-[4-(1-methyl-4-oxo-5H-pyrazolo[3 4-d]pyrimidin-6-yl)piperazin-1-yl]benzonitrile], the IC50 was 0.074 µM in assay [1] and 0.0952 µM in assay [2].
The matching figures for `Cn1ncc2c(=O)[nH]c(N3CCC(c4ccc(C(F)(F)F)cc4)CC3)nc21` [Compound I-6, 1-methyl-6-[4-[4-(trifluoromethyl)phenyl]-1-piperidyl]-5H-pyrazolo[3 4-d]pyrimidin-4-one]: 0.066 µM and 0.0683 µM.
For `Cn1ncc2c(=O)[nH]c(N3CCN(c4c(Cl)cncc4Cl)CC3)nc21` [Compound I-34, 6-[4-(3 5-dichloro-4-pyridyl)piperazin-1-yl]-1-methyl-5H-pyrazolo[3 4-d]pyrimidin-4-one], the IC50 was 0.029 µM in assay [1] and 0.0289 µM in assay [2].
Take `Cn1ncc2c(=O)[nH]c(N3CCN(C4CCS(=O)(=O)C4)CC3)nc21` (stereo not drawn) [Compound I-36, 6-[4-(1 1-dioxothiolan-3-yl)piperazin-1-yl]-1-methyl-5H-pyrazolo[3 4-d]pyrimidin-4-one]: the IC50 in assay [1] turned out to be 1.93 µM; in assay [2], 1.6 µM.
With `Cn1ncc2c(=O)[nH]c(N3CCN(c4ccccc4F)CC3)nc21` [Compound I-3, 6-[4-(2-fluorophenyl)piperazin-1-yl]-1-methyl-5H-pyrazolo[3 4-d]pyrimidin-4-one], the figures for the IC50 in assay [1] and in assay [2] were 0.027 µM and 0.0344 µM, respectively.
The like results for `O=c1[nH]c(N2CCC(c3ccc(F)cc3)CC2)nc2[nH]ncc12` [Compound I-9, 6-[4-(4-fluorophenyl)-1-piperidyl]-1 5-dihydropyrazolo[3 4-d]pyrimidin-4-one] were, in that order, 0.374 µM and 0.664 µM.
The matching figures for `Cn1ncc2c(=O)[nH]c(N3CCN(c4c(F)cc(N)cc4F)CC3)nc21` [Compound I-54, 6-[4-(4-amino-2 6-difluoro-phenyl)piperazin-1-yl]-1-methyl-5H-pyrazolo[3 4-d]pyrimidin-4-one]: 0.021 µM and 0.025 µM.
`Cn1ncc2c(=O)[nH]c(N3CCN(c4ncccc4C#N)CC3)nc21` [Compound I-18, 2-[4-(1-methyl-4-oxo-5H-pyrazolo[3 4-d]pyrimidin-6-yl)piperazin-1-yl]pyridine-3-carbonitrile]: the IC50 is 0.15 µM in assay [1] and 0.228 µM in assay [2].
Turning to `Cn1ncc2c(=O)[nH]c(N3CCN(c4c(F)cccc4F)CC3)nc21` [Compound I-2, 6-[4-(2 6-difluorophenyl)piperazin-1-yl]-1-methyl-5H-pyrazolo[3 4-d]pyrimidin-4-one], the IC50 in assay [1] is 0.0109 µM; in assay [2], 0.0187 µM.
The matching figures for `Cn1ncc2c(=O)[nH]c(N3CCC(O)(c4ccccn4)CC3)nc21` [Compound I-35, 6-[4-hydroxy-4-(2-pyridyl)-1-piperidyl)-1-methyl-5H-pyrazolo[3 4-d]pyrimidin-1-one]: 0.069 µM and 0.0945 µM.
The matching figures for `Cn1ncc2c(=O)[nH]c(N3CCN(c4c(F)cc(C#N)cc4F)CC3)nc21` [Compound I-56, 3 5-difluoro-4-[4-(1-methyl-4-oxo-5H-pyrazolo[3 4-d]pyrimidin-6-yl)piperazin-1-yl]benzonitrile]: 0.055 µM and 0.0632 µM.
In the case of `Cn1ncc2c(=O)[nH]c(N3CCN(c4ncccc4C(F)(F)F)CC3)cc21` [Compound I-26, 1-methyl-6-[4-[3-(trifluoromethyl)-2-pyridyl]piperazin-1-yl]-5H-pyrazolo[4 3-c]pyridin-4-one], the IC50 was 0.029 µM in assay [1] and 0.0304 µM in assay [2].
`Cn1ncc2c(=O)[nH]c(N3CCN(c4c(F)cc([N+](=O)[O-])cc4F)CC3)nc21` [Compound I-49, 6-[4-(2 6-difluoro-4-nitro-phenyl)piperazin-1-yl]-1-methyl-5H-pyrazolo[3 4-d]pyrimidin-4-one]: the figures for the IC50 in assay [1] and in assay [2] were 0.034 µM and 0.0326 µM, respectively.
As for `COCCOc1cc(F)cc(N2CCN(c3nc4c(cnn4C)c(=O)[nH]3)CC2)c1` [Compound I-55, 6-[4-[3-fluoro-5-(2-methoxyethoxy)phenyl]piperazin-1-yl]-1-methyl-5H-pyrazolo[3 4-d]pyrimidin-4-one], the figures for the IC50 in assay [1] and in assay [2] were 0.114 µM and 0.147 µM, respectively.
For the compound `Cn1ncc2c(=O)[nH]c(N3CCN(c4nccs4)CC3)nc21` [Compound I-38, 1-methyl-6-(4-thiazol-2-ylpiperazin-1-yl)-5H-pyrazolo[3 4-d]pyrimidin-4-one], the IC50 worked out at 0.504 µM in assay [1] and 0.598 µM in assay [2].
Take `Cn1ncc2c(=O)[nH]c(N3CCC(c4ccc(F)cc4)CC3)nc21` [Compound I-5, 6-[4-(4-fluorophenyl)-1-piperidyl]-1-methyl-5H-pyrazolo[3 4-d]pyrimidin-4-one]: the IC50 in assay [1] was 0.031 µM; in assay [2] it was 0.0376 µM.
On to “6-[4-(3 5-dichloro-4- pyridyl)piperazin-1-yl]-1- methyl-5H-pyrazolo[4 3- c]pyridin-4-one [Compound I-47]”, for which the IC50 in assay [1] (Compounds I-1 to I-58, procedure in Example 118 (TR-FRET, Biotin-IWR2 60 nM, TNKS 60 nM), read-out: TNKS1 (IC50)) came to 0.026 µM; in assay [2], 0.0291 µM.
